Assay results: patent US7459453B2, “Pyridazin-3(2H)-one derivatives as PDE4 inhibitors” (Laboratorios Almirall, S.A., priority 2002, dated 2008)

Tested on: PDE4
Assay: PDE4 Assay Procedure ([3H]-cAMP SPA)
Format: biochemical
Conditions: 15 nM [3H]-cAMP, SPA beads, 1 hour at room temperature; compounds tested from 10 μM to 10 pM
Experimental: Compounds to be tested were resuspended in DMSO at a stock concentration of 1 mM. The compounds were tested at different concentrations varying from 10 μM to 10 pM to calculate an IC50. These dilutions were done in 96-well plates. In some cases, plates containing diluted compounds were frozen before being assayed. In these cases, the plates were thawed at room temperature and stirred for 15 minutes.
Ten microliters of the diluted compounds were poured into a “low binding” assay plate. Eighty microliters of reaction mixture containing 50 mM Tris pH 7.5, 8.3 mM MgCl2, 1.7 mM EGTA, and 15 nM [3H]-cAMP were added to each well. The reaction was initiated by adding ten microliters of a solution containing PDE4. The plate was then incubated under stirring for 1 hour at room temperature. After incubation the reaction was stopped with 50 microliters of SPA beads, and the reaction was allowed to incubate for another 20 minutes at room temperatures before measuring radioactivity using standard instrumentation.
The reaction mixture was prepared by adding 90 ml of H2O to 10 ml of 10× assay buffer (500 mM Tris pH 7.5, 83 mM MgCl2, 17 mM EGTA), and 40 microliters 1 μCi/μL [3H]-cAMP. SPA beads solution was prepared by adding 500 mg to […] H2O for a final concentration of 20 mg/ml beads and 18 mM zinc sulphate.

Row | IC50 | SMILES
1 | 7.7 nM | CCn1nc(-c2ccccc2)c(C(C)=O)c(Nc2cccc(F)c2)c1=O [Example 1, 5-Acetyl-2-ethyl-4-[(3-fluorophenyl)amino]-6-phenylpyridazin-3(2H)-one]
2 | 2 nM | CCn1nc(-c2ccccc2)c(C(C)=O)c(Nc2cccc3ccccc23)c1=O [Example 8, 5-Acetyl-2-ethyl-4-(1-naphthylamino)-6-phenylpyridazin-3(2H)-one]
3 | 9.3 nM | CCn1nc(-c2ccccc2)c(C(C)=O)c(Nc2ccccc2Cl)c1=O [Example 13, 5-Acetyl-4-[(2-chlorophenyl)amino]-2-ethyl-6-phenylpyridazin-3(2H)-one]
4 | 9.5 nM | CCn1nc(-c2ccc(SC)cc2)c(C(C)=O)c(Nc2ccc(C(=O)O)cc2)c1=O [Example 23, 4-({5-Acetyl-2-ethyl-6-[4-(methylthio)phenyl]-3-oxo-2,3-dihydropyridazin-4-yl}amino)benzoic acid]
5 | 20 nM | CCn1nc(-c2ccc([S+](C)[O-])cc2)c(C(C)=O)c(Nc2ccccc2C)c1=O (centres unmarked) [Example 31, 5-Acetyl-2-ethyl-4-[(2-methylphenyl)amino]-6-[4-(methylsulphinyl)phenyl]pyridazin-3(2H)-one]
6 | 16 nM | CC(=O)c1c(-c2ccccc2)nn(C)c(=O)c1Nc1cc(F)cc(F)c1 [Example 39, 5-Acetyl-4-[(3,5-difluorophenyl)amino]-2-methyl-6-phenylpyridazin-3(2H)-one]
7 | 7.8 nM | CC(=O)c1c(-c2ccccc2)nn(CC2CC2)c(=O)c1Nc1cccc(F)c1 [Example 45, 5-Acetyl-2-(cyclopropylmethyl)-4-[(3-fluorophenyl)amino]-6-phenylpyridazin-3(2H)-one]
8 | 8.9 nM | CC(=O)c1c(-c2ccccc2)nn(CC2CC2)c(=O)c1Nc1cccc(Cl)c1 [Example 46, 5-Acetyl-4-[(3-chlorophenyl)amino]-2-(cyclopropylmethyl)-6-phenylpyridazin-3(2H)-one]
9 | 14 nM | CCn1nc(-c2ccccc2)c(C(C)=O)c(Nc2ccc(C(=O)O)cc2)c1=O [Example 50, 4-[(5-Acetyl-2-ethyl-3-oxo-6-phenyl-2,3-dihydropyridazin-4-yl)amino]benzoic acid]
10 | 12 nM | CCn1nc(-c2ccccc2)c(C(C)=O)c(Nc2cccc(Cl)c2)c1=O [Example 52, 5-Acetyl-4-[(3-chlorophenyl)amino]-2-ethyl-6-phenylpyridazin-3(2H)-one]
11 | 6 nM | CCn1nc(-c2ccccc2)c(C(C)=O)c(Nc2cccc(C#N)c2)c1=O [Example 72, 3-[(5-Acetyl-2-ethyl-3-oxo-6-phenyl-2,3-dihydropyridazin-4-yl)amino]benzonitrile]
12 | 14 nM | CCn1nc(-c2cccc(Cl)c2)c(C(C)=O)c(Nc2ccc(C(=O)O)cc2)c1=O [Example 86, 4-[5-Acetyl-6-(3-chlorophenyl)-2-ethyl-3-oxo-2,3-dihydropyridazin-4-ylamino]benzoic acid]
13 | 6.1 nM | CCn1nc(-c2cccc(Cl)c2)c(C(C)=O)c(Nc2cccc(F)c2)c1=O [Example 88, 5-Acetyl-6-(3-chlorophenyl)-2-ethyl-4-[(3-fluorophenyl)amino]pyridazin-3(2H)-one]
14 | 5.9 nM | CCn1nc(-c2cccc(F)c2)c(C(C)=O)c(Nc2cccc(F)c2)c1=O [Example 91, 5-Acetyl-2-ethyl-4-[(3-fluorophenyl)amino]-6-(3-fluorophenyl)pyridazin-3(2H)-one]
15 | 8.7 nM | CCn1nc(-c2cccc(F)c2)c(C(C)=O)c(Nc2cccc(Cl)c2)c1=O [Example 92, 5-Acetyl-4-[(3-chlorophenyl)amino]-2-ethyl-6-(3-fluorophenyl)pyridazin-3(2H)-one]
16 | 0.5 nM | CCn1nc(-c2cccc([N+](=O)[O-])c2)c(C(C)=O)c(Nc2cccc3ccccc23)c1=O [Example 97, 5-Acetyl-2-ethyl-4-(naphthalen-1-ylamino)-6-(3-nitrophenyl)pyridazin-3(2H)-one]
17 | 0.26 nM | CC(=O)c1c(-c2ccccc2)nn(CC2CC2)c(=O)c1Nc1cc(F)cc(F)c1 [Example 109, 5-Acetyl-2-cyclopropylmethyl-4-(3,5-difluoro-phenylamino)-6-phenyl-2H-pyridazin-3-one]
18 | 7.1 nM | CCn1nc(-c2ccccc2)c(C(=O)CCc2ccccc2)c(Nc2cccc(Cl)c2)c1=O [Example 120, 4-[(3-Chlorophenyl)amino]-2-ethyl-6-phenyl-5-(3-phenylpropanoyl)pyridazin-3(2H)-one]
19 | 19 nM | CCn1nc(-c2cccc(F)c2)c(C(C)=O)c(Nc2ccc(CO)cc2)c1=O [Example 176, 5-Acetyl-2-ethyl-6-(3-fluorophenyl)-4-{[4-(hydroxymethyl)phenyl]amino}pyridazin-3(2H)-one]
20 | 25 nM | CCn1nc(-c2ccc(F)cc2)c(C(C)=O)c(Nc2ccc(CO)cc2)c1=O [Example 181, 5-Acetyl-2-ethyl-6-(4-fluorophenyl)-4-{[4-(hydroxymethyl)phenyl]amino}pyridazin-3(2H)-one]
21 | 9.3 nM | CCn1nc(-c2ccccc2)c(C(C)=O)c(Nc2ccc(F)c(Cl)c2)c1=O [Example 190, 5-Acetyl-4-[(3-chloro-4-fluorophenyl)amino]-2-ethyl-6-phenylpyridazin-3(2H)-one]
22 | 20 nM | CCn1nc(-c2ccccc2)c(C(C)=O)c(Nc2ccc(C#N)cc2)c1=O [Example 231, 4-[(5-Acetyl-2-ethyl-3-oxo-6-phenyl-2,3-dihydropyridazin-4-yl)amino]benzonitrile]
23 | 13 nM | CCn1nc(-c2ccccc2)c(C(C)=O)c(Nc2cccc(C(N)=O)c2)c1=O [Example 232, 3-[(5-Acetyl-2-ethyl-3-oxo-6-phenyl-2,3-dihydropyridazin-4-yl)amino]benzamide]
24 | 15 nM | CCn1nc(-c2ccccc2)c(C(C)=O)c(Nc2c(F)cc(F)cc2F)c1=O [Example 263, 5-Acetyl-2-ethyl-6-phenyl-4-[(2,4,6-trifluorophenyl)amino]pyridazin-3(2H)-one]
25 | 11 nM | CCn1nc(-c2ccccc2)c(C(C)=O)c(Nc2cc(F)c(F)c(F)c2)c1=O [Example 264, 5-Acetyl-2-ethyl-6-phenyl-4-[(3,4,5-trifluorophenyl)amino]pyridazin-3(2H)-one]
26 | 5.5 nM | CCn1nc(-c2ccccc2)c(C(=O)OCc2ccccc2)c(Nc2cccc(Cl)c2)c1=O [Example 274, Benzyl 5-[(3-chlorophenyl)amino]-1-ethyl-6-oxo-3-phenyl-1,6-dihydropyridazine-4-carboxylate]
